# According to patent publication US11578056B2, “Solid forms comprising (S)-2-(2,6-dioxopiperidin-3-yl)-4-((2-fluoro-4-((3-morpholinoazetidin-1-yl)methyl)benzyl)amino)isoindoline-1,3-dione and salts thereof, and compositions comprising and methods of using the same” (Celgene Corporation, priority 2019, dated 2023):
# How the values were obtained:
# Assay in all cases: Hematological cell line viability/apoptosis flow cytometry assay
# Assay type in all cases: cell-based
# OCI-LY10 cell line = details: OCI-LY10 (DLBCL ABC); 120 h
# Summary of the method: (§1)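 384-well format; serial dilutions 0.00015–10 μM, DMSO 0.1% v/v, 5 days. Annexin V/DRAQ7 flow readout. Viability normalized to DMSO → IC50, Emax, AUC; apoptosis (early + late) vs DMSO → EC50, Ymax, AUC.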
# OCI-LY1 cell line = details: OCI-LY1 (DLBCL GCB); 120 h
# Summary of the method: as §1
# SU-DHL-1 cell line = details: SU-DHL-1 (DLBCL); 120 h
# Summary of the method: as §1
# CARNAVAL cell line = details: CARNAVAL (DLBCL), 120 h
# Summary of the method: as §1
# MDS-L cell line = details: 120 h
# Summary of the method: as §1
# SU-DHL-10 cell line = details: SU-DHL-10 (DLBCL GCB); 120 h
# Summary of the method: as §1
# Rec-1 cell line = details: Rec-1 (MCL); 120 h
# Summary of the method: as §1
# WILL-1 cell line = details: WILL-1 (DLBCL); 120 h
# Summary of the method: as §1
# SU-DHL-8 cell line = details: SU-DHL-8 (DLBCL GCB); 120 h
# Summary of the method: as §1
# KOPN-8 cell line = details: KOPN-8 (ALL), 120 h
# Summary of the method: as §1
# DOHH2 cell line = details: DOHH2 (FL); 120 h
# Summary of the method: as §1
# VAL cell line = details: VAL (DLBCL), 120 h
# Summary of the method: as §1
# OCI-LY7 cell line = details: OCI-LY7 (DLBCL GCB); 120 h
# Summary of the method: as §1
# CII cell line = details: CII (CLL), 120 h
# Summary of the method: as §1
smiles,measurement,setting,value
"O=C1CC[C@H](N2C(=O)c3cccc(NCc4ccc(CN5CC(N6CCOCC6)C5)cc4F)c3C2=O)C(=O)N1 [Compound 1, (S)-2-(2,6-dioxopiperidin-3-yl)-4-((2-fluoro-4-((3-morpholinoazetidin-1-yl)methyl)benzyl)amino)isoindoline-1,3-dione]",% Viable Cells AUC,OCI-LY10 cell line,125.3
same,% Viable Cells Emax,OCI-LY10 cell line,10.16%
same,Apoptosis AUC,OCI-LY10 cell line,188.9
same,Apoptosis Ymax,OCI-LY10 cell line,22.31%
same,% Viable Cells AUC,OCI-LY1 cell line,22.77
same,% Viable Cells Emax,OCI-LY1 cell line,1.037%
same,Apoptosis AUC,OCI-LY1 cell line,852.3
same,Apoptosis Ymax,OCI-LY1 cell line,90.09%
same,% Viable Cells AUC,SU-DHL-1 cell line,31.14
same,% Viable Cells Emax,SU-DHL-1 cell line,2.485%
same,Apoptosis AUC,SU-DHL-1 cell line,690.1
same,Apoptosis Ymax,SU-DHL-1 cell line,73.83%
same,% Viable Cells AUC,CARNAVAL cell line,110.6
same,% Viable Cells Emax,CARNAVAL cell line,7.134%
same,Apoptosis AUC,CARNAVAL cell line,708.7
same,Apoptosis Ymax,CARNAVAL cell line,77.84%
same,EC50,CARNAVAL cell line,0.152 µM
same,IC50,CARNAVAL cell line; read-out: % Viable Cells IC50,0.00912 µM
same,% Viable Cells AUC,MDS-L cell line,182.6
same,% Viable Cells Emax,MDS-L cell line,146.7%
same,Apoptosis AUC,MDS-L cell line,425.4
same,Apoptosis Ymax,MDS-L cell line,100%
same,EC50,MDS-L cell line,1.56 µM
same,IC50,MDS-L cell line; read-out: % Viable Cells IC50,0.0513 µM
same,% Viable Cells AUC,SU-DHL-10 cell line,10.36
same,% Viable Cells Emax,SU-DHL-10 cell line,0.6716%
same,Apoptosis AUC,SU-DHL-10 cell line,903
same,Apoptosis Ymax,SU-DHL-10 cell line,92.27%
same,% Viable Cells AUC,Rec-1 cell line,281.8
same,% Viable Cells Emax,Rec-1 cell line,21.04%
same,Apoptosis AUC,Rec-1 cell line,508.5
same,Apoptosis Ymax,Rec-1 cell line,57.27%
same,% Viable Cells AUC,WILL-1 cell line,233.7
same,% Viable Cells Emax,WILL-1 cell line,4.216%
same,Apoptosis AUC,WILL-1 cell line,549.4
same,Apoptosis Ymax,WILL-1 cell line,79.51%
same,% Viable Cells AUC,SU-DHL-8 cell line,119.5
same,% Viable Cells Emax,SU-DHL-8 cell line,2.081%
same,Apoptosis AUC,SU-DHL-8 cell line,363.2
same,Apoptosis Ymax,SU-DHL-8 cell line,85.44%
same,EC50,KOPN-8 cell line; Homo sapiens,726 µM
same,IC50,"KOPN-8 cell line; Homo sapiens, read-out: % Viable Cells IC50",0.0418 µM
same,% Viable Cells AUC,KOPN-8 cell line,490.2
same,% Viable Cells Emax,KOPN-8 cell line,38.3%
same,Apoptosis AUC,KOPN-8 cell line,14.95
same,Apoptosis Ymax,KOPN-8 cell line,5.00%
same,% Viable Cells AUC,DOHH2 cell line,6.902
same,% Viable Cells Emax,DOHH2 cell line,0.2066%
same,Apoptosis AUC,DOHH2 cell line,923.9
same,Apoptosis Ymax,DOHH2 cell line,95.1%
same,% Viable Cells AUC,VAL cell line,14.62
same,% Viable Cells Emax,VAL cell line,0.9632%
same,Apoptosis AUC,VAL cell line,936.7
same,Apoptosis Ymax,VAL cell line,95.68%
same,EC50,VAL cell line,0.000605 µM
same,IC50,VAL cell line; read-out: % Viable Cells IC50,0.00057 µM
same,% Viable Cells AUC,OCI-LY7 cell line,48.18
same,% Viable Cells Emax,OCI-LY7 cell line,4.191%
same,Apoptosis AUC,OCI-LY7 cell line,682.7
same,Apoptosis Ymax,OCI-LY7 cell line,71.18%
same,% Viable Cells AUC,CII cell line,926.1
same,% Viable Cells Emax,CII cell line,78.23%
same,Apoptosis AUC,CII cell line,238.1
same,Apoptosis Ymax,CII cell line,26.11%
same,EC50,CII cell line,0.145 µM
same,IC50,CII cell line; read-out: % Viable Cells IC50,> 10 µM
